According to US7388017B2, “Inhibitors of serine proteases, particularly hepatitis C virus NS3 protease” (Vertex Pharmaceuticals Incorporated, priority 1996, dated 2008):
Starred links: 1 amine or outer side, 2 acyl side, 3 side chain; linkers in the order of their positions; H or OH if unused. Non-standard residues stand in square brackets, D forms with d. Residues, ends and D or L forms follow the SMILES beside them. Groups on a side chain read outwards from the residue. *: point of attachment. NH(1,3-benzodioxol-5-yl) = c1cc2c(cc1N*)OCO2; X19 = O=[N+]([O-])c1cc(N*)ccc1N1CCCCC1; Pyrazinecarbonyl = O=C(c1cnccn1)*; X30 = O=[N+]([O-])c1cccc(N*)c1; pNA = O=[N+]([O-])c1ccc(N*)cc1; X28 = c1ccc(Oc2cccc(N*)c2)cc1; Hyp = O=C(O)[CH]1C[CH](O)CN1; NH(3-MeOPh) = COc1cccc(N*)c1; X3 = c1ccc(-c2ccccc2N*)cc1; 3Abz = Nc1cccc(C(=O)O)c1; X18 = CC(=O)c1cccc(N*)c1; X39 = CC(=O)c1ccc(N*)cc1; X43 = Clc1cc(N*)cc(Cl)n1; X17 = c1nc2ccc(N*)cc2s1; X9 = COc1ccc(OC)c(N*)c1; 2Abz = Nc1ccccc1C(=O)O; X14 = Clc1ccc(N*)cc1Cl; X46 = Clc1cccc(Cl)c1N*; Abu = CC[CH](N)C(=O)O; X34 = N#Cc1cccc(N*)c1; X38 = CC(C)c1ccccc1N*; CO = O=C([*:1])[*:2]; NHBn = c1ccc(CN*)cc1; X47 = COc1ccccc1N*

Biological target: T1, HCV NS3 protease (Hepatitis C virus genotype 1a, UniProt P27958)
T1 construct: more particularly HCV NS3 proteases
T1 sequence (P27958 1027-1208): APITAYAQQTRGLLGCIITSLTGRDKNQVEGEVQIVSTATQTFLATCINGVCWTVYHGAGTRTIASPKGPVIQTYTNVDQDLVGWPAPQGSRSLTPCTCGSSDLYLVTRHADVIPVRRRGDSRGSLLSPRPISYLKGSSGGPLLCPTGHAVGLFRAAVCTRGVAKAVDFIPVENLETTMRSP
Experiment: Enzyme inhibition of HCV NS3 serine protease (cleavage of peptide substrate / EDVV AbuC-p-nitroanilide, with or without NS4A)
Assay type: biochemical
Settings: not given
Experimental: Cleavage reactions were quenched by the addition of an equal volume of a mixture of 10% TFA:acetonitrile (1:1) and activity was assessed on a reversed phase HPLC column (Rainin C18 Microsorb-MV, […], 4.6×250 mm; 0-50% acetonitrile, 0.1% TFA@ 3.33% min) using a Hewlett Packard 1050 instrument with auto-injection and diode array detection at 210 nm and 280 nm (where appropriate). Peptide elution fragments were collected and identified by mass spectrometry and N-terminal sequence analysis. Fragment identity and concentration was further verified by authentic, synthesized products. Initial rates of cleavage were determined at <20% substrate conversion and catalytic parameters were determined assuming Michaelis-Menten kinetics using the MultiFit program (Day Computing, Cambridge, Mass.).
Spectrophotometric assays were run in a 96-well microtiter plate at 30 C, using a SpectraMax 250 reader (Molecular Devices, Sunnyvale, Calif.) with kinetic capability. Cleavage of EDVV AbuC-p-nitroanilide (5A-pNA) substrate was performed with or without […] in the same buffer used for HPLC assays at 30 C, and pNA release was monitored at 405 nm. The extinction-coefficient of p-nitroaniline is independent of pH at values of 5.5. and above [Tuppy, H., et al., Hoppe-Seyler's Z. Physiol. Chem., 329, pp. 278-288 (1962)]; Raybuck and Luong, unpublished observations).
Kinetic constants for the rapid equilibrium ordered bisubstrate reaction were determined from rate vs [4A], [EDVV AbuC-pNA] data by non-linear least squares fitting to equation 1 [Morrison, J. F. Biochim. Biophys. Acta, 185, pp. 269-286 (1969)] as described in the text. Kii and Kis values for peptidyl inhibitors were determined from rate vs [inhibitor], [substrate] data and fitting to the equation for mixed inhibition: rate=Vmax[S]/{Km(1+[I]/Kis)+[S](1+[I]/Kii)} The commercial program KinetAsyst (StateCollege, Pa.) was used for both procedures. Ki values were calculated from rate vs [inhibitor] plots by a nonlinear least squares fit of the data to the equation of Morrison for tight binding competitive inhibition [Morrison, J. F. Biochim. Biophys. Acta, 185, pp. 269-286 (1969)]. The KineTic program (BioKin Ltd) was used for this procedure.
Ki values are expressed in μM. Category “A” indicates <1 μM inhibition; category “B” indicates 1-100 μM inhibition; category “C” indicates >100 μM.

Structure (SMILES) | Ki [µM]
CCC(NC(=O)C1CC(OCc2ccc(Cl)c(Cl)c2)CN1C(=O)C(NC(=O)C(NC(=O)c1cnccn1)C(C)C)C(C)C)P(=O)(Oc1ccccc1)Oc1ccccc1 (stereo not shown) [Compound 71] | < 1
CCC(NC(=O)C1CC(OCc2ccc3ccccc3c2)CN1C(=O)C(NC(=O)C(NC(=O)c1cnccn1)C(C)C)C(C)C)P(=O)(Oc1ccccc1)Oc1ccccc1 (stereo not shown) [Compound 72] | 1 to 100
CCC(NC(=O)C1CC(OCc2ccccc2)CN1C(=O)C(NC(=O)C(NC(=O)c1cnccn1)C(C)C)C(C)C)P(=O)(Oc1ccccc1)Oc1ccccc1 (stereo not shown) [Compound 73] | 1 to 100

Same assay, conditions: Enzyme inhibition data; Ki from rate vs [inhibitor] plots, Morrison tight binding competitive inhibition fit; 30 C, pH 7.8; read-out: Ki

Structure (SMILES) | Ki [µM]
CCC(C=O)NC(=O)C1CC(OC(=O)Nc2ccc(N3CCCCC3)c([N+](=O)[O-])c2)CN1C(=O)C(NC(=O)C(NC(=O)c1cnccn1)C(C)C)C(C)C (stereo not shown) [Compound 34] (Pyrazinecarbonyl-VV[Hyp]([CO-X19])[Abu]-aldehyde; configuration not given here) | 1 to 100
CCC(C=O)NC(=O)C1CC(OC(=O)Nc2ccc3ncsc3c2)CN1C(=O)C(NC(=O)C(NC(=O)c1cnccn1)C(C)C)C(C)C (stereo not shown) [Compound 35] (Pyrazinecarbonyl-VV[Hyp]([CO-X17])[Abu]-aldehyde; configuration not given here) | 1 to 100
CCC(C=O)NC(=O)C1CC(OC(=O)Nc2cccc(C(C)=O)c2)CN1C(=O)C(NC(=O)C(NC(=O)c1cnccn1)C(C)C)C(C)C (stereo not shown) [Compound 36] (Pyrazinecarbonyl-VV[Hyp]([CO-X18])[Abu]-aldehyde; configuration not given here) | > 100
CCC(C=O)NC(=O)C1CC(OC(=O)Nc2ccc(C(C)=O)cc2)CN1C(=O)C(NC(=O)C(NC(=O)c1cnccn1)C(C)C)C(C)C (stereo not shown) [Compound 37] (Pyrazinecarbonyl-VV[Hyp]([CO-X39])[Abu]-aldehyde; configuration not given here) | 1 to 100
CCC(C=O)NC(=O)C1CC(OC(=O)Nc2cccc(C#N)c2)CN1C(=O)C(NC(=O)C(NC(=O)c1cnccn1)C(C)C)C(C)C (stereo not shown) [Compound 38] (Pyrazinecarbonyl-VV[Hyp]([CO-X34])[Abu]-aldehyde; configuration not given here) | 1 to 100
CCC(C=O)NC(=O)C1CC(OC(=O)Nc2ccc([N+](=O)[O-])cc2)CN1C(=O)C(NC(=O)C(NC(=O)c1cnccn1)C(C)C)C(C)C (stereo not shown) [Compound 39] (Pyrazinecarbonyl-VV[Hyp]([CO-pNA])[Abu]-aldehyde; configuration not given here) | 1 to 100
CCC(C=O)NC(=O)C1CC(OC(=O)Nc2cccc([N+](=O)[O-])c2)CN1C(=O)C(NC(=O)C(NC(=O)c1cnccn1)C(C)C)C(C)C (stereo not shown) [Compound 40] (Pyrazinecarbonyl-VV[Hyp]([CO-X30])[Abu]-aldehyde; configuration not given here) | 1 to 100
CCC(C=O)NC(=O)C1CC(OC(=O)Nc2cc(OC)ccc2OC)CN1C(=O)C(NC(=O)C(NC(=O)c1cnccn1)C(C)C)C(C)C (stereo not shown) [Compound 41] (Pyrazinecarbonyl-VV[Hyp]([CO-X9])[Abu]-aldehyde; configuration not given here) | 1 to 100
CCC(C=O)NC(=O)C1CC(OC(=O)Nc2cccc(OC)c2)CN1C(=O)C(NC(=O)C(NC(=O)c1cnccn1)C(C)C)C(C)C (stereo not shown) [Compound 42] (Pyrazinecarbonyl-VV[Hyp]([CO-NH(3-MeOPh)])[Abu]-aldehyde; configuration not given here) | 1 to 100
CCC(C=O)NC(=O)C1CC(OC(=O)Nc2ccccc2OC)CN1C(=O)C(NC(=O)C(NC(=O)c1cnccn1)C(C)C)C(C)C (stereo not shown) [Compound 43] (Pyrazinecarbonyl-VV[Hyp]([CO-X47])[Abu]-aldehyde; configuration not given here) | 1 to 100
CCC(C=O)NC(=O)C1CC(OC(=O)Nc2ccc3c(c2)OCO3)CN1C(=O)C(NC(=O)C(NC(=O)c1cnccn1)C(C)C)C(C)C (stereo not shown) [Compound 44] (Pyrazinecarbonyl-VV[Hyp]([CO-NH(1,3-benzodioxol-5-yl)])[Abu]-aldehyde; configuration not given here) | 1 to 100
CCC(C=O)NC(=O)C1CC(OC(=O)Nc2c(Cl)cccc2Cl)CN1C(=O)C(NC(=O)C(NC(=O)c1cnccn1)C(C)C)C(C)C (stereo not shown) [Compound 45] (Pyrazinecarbonyl-VV[Hyp]([CO-X46])[Abu]-aldehyde; configuration not given here) | 1 to 100
CCC(C=O)NC(=O)C1CC(OC(=O)Nc2ccc(Cl)c(Cl)c2)CN1C(=O)C(NC(=O)C(NC(=O)c1cnccn1)C(C)C)C(C)C (stereo not shown) [Compound 46] (Pyrazinecarbonyl-VV[Hyp]([CO-X14])[Abu]-aldehyde; configuration not given here) | 1 to 100
CCC(C=O)NC(=O)C1CC(OC(=O)NCc2ccccc2)CN1C(=O)C(NC(=O)C(NC(=O)c1cnccn1)C(C)C)C(C)C (stereo not shown) [Compound 50] (Pyrazinecarbonyl-VV[Hyp]([CO-NHBn])[Abu]-aldehyde; configuration not given here) | 1 to 100
CCC(C=O)NC(=O)C1CC(OC(=O)Nc2cc(Cl)nc(Cl)c2)CN1C(=O)C(NC(=O)C(NC(=O)c1cnccn1)C(C)C)C(C)C (stereo not shown) [Compound 51] (Pyrazinecarbonyl-VV[Hyp]([CO-X43])[Abu]-aldehyde; configuration not given here) | 1 to 100
CCC(C=O)NC(=O)C1CC(OC(=O)Nc2ccccc2-c2ccccc2)CN1C(=O)C(NC(=O)C(NC(=O)c1cnccn1)C(C)C)C(C)C (stereo not shown) [Compound 52] (Pyrazinecarbonyl-VV[Hyp]([CO-X3])[Abu]-aldehyde; configuration not given here) | 1 to 100

Structure (SMILES) | Ki [µM]
CCC(C=O)NC(=O)C1CC(OC(=O)Nc2cccc(Oc3ccccc3)c2)CN1C(=O)C(NC(=O)C(NC(=O)c1cnccn1)C(C)C)C(C)C (stereo not shown) [Compound 53] (Pyrazinecarbonyl-VV[Hyp]([CO-X28])[Abu]-aldehyde; configuration not given here) | 1 to 100
CCC(C=O)NC(=O)C1CC(OC(=O)Nc2ccccc2C(C)C)CN1C(=O)C(NC(=O)C(NC(=O)c1cnccn1)C(C)C)C(C)C (stereo not shown) [Compound 54] (Pyrazinecarbonyl-VV[Hyp]([CO-X38])[Abu]-aldehyde; configuration not given here) | 1 to 100
CCC(C=O)NC(=O)C1CC(OC(=O)Nc2ccccc2C(=O)OC)CN1C(=O)C(NC(=O)C(NC(=O)c1cnccn1)C(C)C)C(C)C (stereo not shown) [Compound 55] (Pyrazinecarbonyl-VV[Hyp]([CO-2Abz-OMe])[Abu]-aldehyde; configuration not given here) | 1 to 100
CCOC(=O)c1cccc(NC(=O)OC2CC(C(=O)NC(C=O)CC)N(C(=O)C(NC(=O)C(NC(=O)c3cnccn3)C(C)C)C(C)C)C2)c1 (stereo not shown) [Compound 56] (Pyrazinecarbonyl-VV[Hyp]([CO-3Abz-OEt])[Abu]-aldehyde; configuration not given here) | > 100
CCC(C=O)NC(=O)C1CC(NC(=O)c2ccc(Cl)c(Cl)c2)CN1C(=O)C(NC(=O)C(NC(=O)c1cnccn1)C(C)C)C(C)C (stereo not shown) [Compound 57] | 1 to 100
CCC(C=O)NC(=O)C1CC(NC(=O)NCc2ccccc2)CN1C(=O)C(NC(=O)C(NC(=O)c1cnccn1)C(C)C)C(C)C (stereo not shown) [Compound 58] | 1 to 100
CCC(C=O)NC(=O)C1CC(NC(=O)N2CCOCC2)CN1C(=O)C(NC(=O)C(NC(=O)c1cnccn1)C(C)C)C(C)C (stereo not shown) [Compound 59] | 1 to 100
CCC(C=O)NC(=O)C1CC(NC(=O)OCc2ccccc2)CN1C(=O)C(NC(=O)C(NC(=O)c1cnccn1)C(C)C)C(C)C (stereo not shown) [Compound 60] | > 100
C=CCOC(=O)NC1CC(C(=O)NC(C=O)CC)N(C(=O)C(NC(=O)C(NC(=O)c2cnccn2)C(C)C)C(C)C)C1 (stereo not shown) [Compound 61] | > 100
CCC(C=O)NC(=O)C1CC(NC(=O)c2ccccc2)CN1C(=O)C(NC(=O)C(NC(=O)c1cnccn1)C(C)C)C(C)C (stereo not shown) [Compound 62] | 1 to 100
CCC(C=O)NC(=O)C1CC(NC(=O)CCc2ccccc2)CN1C(=O)C(NC(=O)C(NC(=O)c1cnccn1)C(C)C)C(C)C (stereo not shown) [Compound 63] | 1 to 100
CCC(C=O)NC(=O)C1CC(NC(=O)C(=O)c2ccccc2)CN1C(=O)C(NC(=O)C(NC(=O)c1cnccn1)C(C)C)C(C)C (stereo not shown) [Compound 64] | 1 to 100
CCC(C=O)NC(=O)C1CC(NS(=O)(=O)Cc2ccccc2)CN1C(=O)C(NC(=O)C(NC(=O)c1cnccn1)C(C)C)C(C)C (stereo not shown) [Compound 65] | 1 to 100
CCC(C=O)NC(=O)C1CC(NCc2ccccc2)CN1C(=O)C(NC(=O)C(NC(=O)c1cnccn1)C(C)C)C(C)C (stereo not shown) [Compound 67] | > 100
CCC(NC(=O)C1CC(OCc2ccccc2)CN1C(=O)C(NC(=O)C(NC(=O)c1cnccn1)C(C)C)C(C)C)C(=O)C(F)(F)C(F)(F)F (stereo not shown) [Compound 75] | 1 to 100
